Earlier results on 62 molecules are cited in the CATMoS acute toxicity set (Mansouri et al. 2021).

Several values for one entry are separate records, joined by “and”; a condition that tells them apart may be missing. Equal entries are not always repeated.

A short description of the data set: rat acute oral toxicity. Conditions: in vivo.
As to `ClCCOCCCl`, the median lethal dose (LD50) is 75 mg/kg.

With `O=C1c2ccccc2C(=O)N1CC1CO1` (configuration not stated), the LD50 is 4700 mg/kg.

As to `CCCCCCCCCCCC[N+](C)(C)Cc1ccccc1`, the 50% lethal dose (LD50) was 400 mg/kg and 230 mg/kg.

For the molecule `CN(C)c1ccc(C(O)(c2ccc(N(C)C)cc2)c2ccc(N(C)C)cc2)cc1`, the LD50 is 770 mg/kg.

With `OC1(c2ccc(Cl)cc2)CCNCC1`, the LD50 is 465 mg/kg.

`CCNc1nc(Cl)nc(N(CC)CC)n1`: the 50% lethal dose (LD50) was 594 mg/kg.

Turning to `COc1cc(O)c(C(=O)c2ccccc2)cc1S(=O)(=O)O`, the LD50 is 3530 mg/kg.

Take `CC1NCCOC1c1ccccc1` (configuration not stated): the LD50 is 370 mg/kg and 165 mg/kg.

Consider `CC(=O)Oc1ccccc1C=CC(=O)O`, for which the LD50 is 3150 mg/kg.

As to `CC1=C(CC(=O)O)c2cc(F)ccc2/C1=C\c1ccc(S(C)=O)cc1` (configuration not stated), the LD50 was 264 mg/kg.

Turning to `CC(C)CNC(=O)OCC(O)C1COc2ccccc2O1` (configuration not stated), the LD50 is 1500 mg/kg.

Take `Cc1cccc(/N=N\N(C)C)c1`: the LD50 was 300 mg/kg.

Consider `CC(C)=CC(=O)O[C@H]1CC[C@]2(C=O)[C@H]3CC[C@]4(C)[C@@H](c5ccc(=O)oc5)CC[C@]4(O)[C@@H]3CC[C@]2(O)C1`, for which the median lethal dose (LD50) was 1.74 mg/kg.

For the molecule `O=C(OCC(O)CO)c1ccccc1Nc1ccnc2cc(Cl)ccc12` (configuration not stated), the LD50 was 2300 mg/kg.

With `C1CN1c1nc(N2CC2)nc(N2CC2)n1`, the LD50 was 13 mg/kg.

Consider `CCNC(=O)Oc1c(Cl)c(Cl)cc2[nH]c(C(F)(F)F)nc12`, for which the LD50 was 103 mg/kg.

With `CCOP(=S)(OCC)Oc1ccc(Cl)c([N+](=O)[O-])c1`, the LD50 is 100 mg/kg.

As for `CCCCC`, the median lethal dose (LD50) was 400 mg/kg.

On to `CN1CCC(=C2c3ccccc3CCc3sccc32)CC1`, for which the LD50 is 410 mg/kg.

With `CCOC(=O)C(C)O` (configuration not stated), the LD50 is 8200 mg/kg.

Regarding `CCC(=O)CC(C)CC` (configuration not stated), the LD50 was 3500 mg/kg.

Take `C#CC(OC(=O)C1C(C=C(C)C)C1(C)C)/C(C)=C/CC` (configuration not stated): the median lethal dose (LD50) is 1680 mg/kg.

On to `Cc1ccc(N(CC2=NCCN2)c2cccc(O)c2)cc1`, for which the LD50 was 1250 mg/kg.

Turning to `Nc1ccc2c(c1)C1CCCCC1N2` (configuration not stated), the LD50 was 275 mg/kg.

In the case of `C[N+]1(C)[C@@H]2CC[C@H]1C[C@@H](OC(=O)C(O)c1ccccc1)C2` (some centres not stated), the 50% lethal dose (LD50) is 1200 mg/kg.

As for `O=Cc1ccc(Cl)cc1`, the median lethal dose (LD50) is 1580 mg/kg.

With `CCCSP(=O)(OCC)Oc1ccc(Sc2ccc(Cl)cc2)cc1` (configuration not stated), the 50% lethal dose (LD50) was 690 mg/kg.

On to `FC(Cl)(Cl)c1ccccc1`, for which the LD50 was 450 mg/kg.

`O=c1c2nocc2c(-c2ccccc2)nn1-c1ccccc1`: the LD50 was 1000 mg/kg.

For `O=S(=O)(O)CO`, the 50% lethal dose (LD50) was 3200 mg/kg.

Consider `O=NN(CCCC(F)(F)F)CCCC(F)(F)F`, for which the LD50 is 750 mg/kg.

For the molecule `Cc1cc(C(C)(C)C)cc(C)c1CC1=NCCN1`, the median lethal dose (LD50) is 230 mg/kg.

Take `CC1=[N+](C)C2CCC1(c1ccccc1)c1ccccc12` (configuration not stated): the 50% lethal dose (LD50) was 707 mg/kg.

Consider `COc1cccc2c1C(=O)c1c(O)c3c(c(O)c1C2=O)C[C@@](O)(C(C)=O)C[C@@H]3O[C@H]1C[C@H](N)[C@H](O)[C@H](C)O1`, for which the 50% lethal dose (LD50) was 336 mg/kg and 290 mg/kg.

`COc1ccccc1OCC(O)CO` (configuration not stated): the median lethal dose (LD50) is 1510 mg/kg.

As to `CCOC(=O)C=C(C)C`, the 50% lethal dose (LD50) was 11600 mg/kg.

Consider `COC1CC2CC1C1CC(C=O)CC21` (configuration not stated), for which the LD50 is 2800 mg/kg.

For the molecule `COCc1c(CO)cnc(C)c1O`, the LD50 is 2150 mg/kg.

Consider `CSCC[C@H](N)C(=O)O`, for which the LD50 is 36000 mg/kg.

With `CC(C)(C)NCC(O)COc1ccccc1C#N` (configuration not stated), the LD50 is 639 mg/kg.

Consider `Cc1ccccc1-n1c(C)nc2ccccc2c1=O`, for which the 50% lethal dose (LD50) was 185 mg/kg.

As to `COP(=S)(OC)Oc1ccc(Sc2ccc(OP(=S)(OC)OC)c(C)c2)cc1C`, the LD50 is 250 mg/kg.

Regarding `O=C(O)C(O)(c1ccccc1)C1CCCCC1` (configuration not stated), the LD50 was 2670 mg/kg.

`NC(=O)C1c2ccccc2C=Cc2ccccc21`: the median lethal dose (LD50) is 1800 mg/kg.

With `CC(C)CCCCCOP(OCCCCCC(C)C)OCCCCCC(C)C`, the median lethal dose (LD50) was 9200 mg/kg.

Turning to `CS(=O)(=O)OC(CCN1CCCCC1)(c1ccccc1)c1ccccc1`, the 50% lethal dose (LD50) is 1240 mg/kg.

On to `Oc1ccc(-c2ccc(O)cc2)cc1`, for which the LD50 is 4920 mg/kg.

Turning to `Cc1c(Nc2ccccc2C(=O)O)ccc(O)c1Cl`, the 50% lethal dose (LD50) was 1850 mg/kg.

Turning to `CCOC(=O)c1cnn(C)c1-n1cnc2ccccc2c1=O`, the median lethal dose (LD50) was 1760 mg/kg.

For `CCCCC(CC)CNC1CCCCC1` (configuration not stated), the 50% lethal dose (LD50) is 710 mg/kg.

As to `CCCCCCCCOS(=O)(=O)O`, the LD50 is 3200 mg/kg.

For the molecule `Cn1c(=N)oc2ccc(Cl)cc21`, the 50% lethal dose (LD50) was 1000 mg/kg.

As to `c1cc(CC2CO2)cc(CC2CO2)c1` (configuration not stated), the LD50 is 4190 mg/kg.

Turning to `Cc1cccc(N2CCN(CCC(O)c3ccc4c(c3)CCC(=O)N4)CC2)c1C` (configuration not stated), the median lethal dose (LD50) is 500 mg/kg.

Consider `COc1ccc(C=CC(=O)OCCC(C)C)cc1`, for which the 50% lethal dose (LD50) is 9600 mg/kg.

Consider `CCCCCCCCCCCC=O`, for which the 50% lethal dose (LD50) is 23000 mg/kg.

On to `C=Cc1ccccc1Cl`, for which the median lethal dose (LD50) is 5200 mg/kg.

As to `Cl/C=C/C[N+]12CN3CN(CN(C3)C1)C2`, the LD50 was 500 mg/kg.

Regarding `CCNC(=O)/C=C/c1cccc(Br)c1`, the LD50 is 4440 mg/kg.

For the molecule `CC(Cl)CO` (configuration not stated), the LD50 is 218 mg/kg.

Take `CCCCN1CCOCC1`: the LD50 was 338 mg/kg.

`CC(C)CNC(=O)N1CCNC1=O`: the LD50 was 3500 mg/kg.
